In ChEMBL document CHEMBL1201862, “PubChem BioAssay data set” (2004):
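Each compound was tested at five concentrations against cells in 96-well plates for 48 hours. At the GI50, growth is halved.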 Activity calls are given as the source filed them. No stated cut-off is given here; in the data, active = GI50 up to about 1.1 µM and inactive = higher.

What was measured:
Experiment in all cases: NCI tumour cell line growth inhibition, 48 h
786-0 = test system: 786-0
A498 = test system: A498
A549 = test system: A549
ACHN = test system: ACHN
BT-549 = test system: BT-549
CAKI-1 = test system: CAKI-1
CCRF-CEM = test system: CCRF-CEM
COLO 205 = test system: COLO 205
DLD-1 = test system: DLD-1
DMS-114 = test system: DMS-114
DMS-273 = test system: DMS-273
DU-145 = test system: DU-145
EKVX = test system: EKVX
HCC 2998 = test system: HCC 2998
HCT-116 = test system: HCT-116
HCT-15 = test system: HCT-15
HOP-18 = test system: HOP-18
HOP-62 = test system: HOP-62
HOP-92 = test system: HOP-92
HT-29 = test system: HT-29
Hs-578T = test system: Hs-578T
IGROV-1 = test system: IGROV-1
K562 = test system: K562
KM-20L2 = test system: KM-20L2
KM12 = test system: KM12
LOX IMVI = test system: LOX IMVI
LXFL 529 = test system: LXFL 529
M14 = test system: M14
M19-MEL = test system: M19-MEL
MCF7 = test system: MCF7
MDA-MB-231 = test system: MDA-MB-231
MDA-MB-435 = test system: MDA-MB-435
MDA-N = test system: MDA-N
MOLT-4 = test system: MOLT-4
Malme-3M = test system: Malme-3M
NCI-H226 = test system: NCI-H226
NCI-H23 = test system: NCI-H23
NCI-H460 = test system: NCI-H460
NCI-H522 = test system: NCI-H522
NCI/ADR-RES = test system: NCI/ADR-RES
OVCAR-3 = test system: OVCAR-3
OVCAR-4 = test system: OVCAR-4
OVCAR-5 = test system: OVCAR-5
OVCAR-8 = test system: OVCAR-8
PC-3 = test system: PC-3
RPMI-8226 = test system: RPMI-8226
RXF 393 = test system: RXF 393
SF-268 = test system: SF-268
SF-295 = test system: SF-295
SF-539 = test system: SF-539
SK-MEL-28 = test system: SK-MEL-28
SK-MEL-2 = test system: SK-MEL-2
SK-MEL-5 = test system: SK-MEL-5
SK-OV-3 = test system: SK-OV-3
SN12C = test system: SN12C
SNB-19 = test system: SNB-19
SNB-75 = test system: SNB-75
SNB-78 = test system: SNB-78
SR = test system: SR
SW-620 = test system: SW-620
T47D = test system: T47D
TK-10 = test system: TK-10
U-251 = test system: U-251
UACC-257 = test system: UACC-257
UACC-62 = test system: UACC-62
UO-31 = test system: UO-31
XF498 = test system: XF498
HL-60 = test system: HL-60
RXF 631 = test system: RXF 631

Cc1cc(NC(=O)C(=O)Cc2nc3ccccc3s2)ccc1Cl
GI50 (786-0): > 100 µM (inactive)
GI50 (A498): > 100 µM (inactive)
GI50 (A549): > 100 µM (inactive)
GI50 (ACHN): > 100 µM (inactive)
GI50 (BT-549): > 100 µM (inactive)
GI50 (CAKI-1): > 100 µM (inactive)
GI50 (CCRF-CEM): > 100 µM (inactive)
GI50 (COLO 205): > 100 µM (inactive)
GI50 (DLD-1): > 100 µM (inactive)
GI50 (DMS-114): > 100 µM (inactive)
GI50 (DMS-273): > 100 µM (inactive)
GI50 (DU-145): > 100 µM (inactive)
GI50 (EKVX): > 100 µM (inactive)
GI50 (HCC 2998): > 100 µM (inactive)
GI50 (HCT-116): > 100 µM (inactive)
GI50 (HCT-15): > 100 µM
GI50 (HOP-18): 21.8 µM (inactive)
GI50 (HOP-62): > 100 µM (inactive)
GI50 (HOP-92): > 100 µM (inactive)
GI50 (HT-29): > 100 µM (inactive)
GI50 (Hs-578T): > 100 µM (inactive)
GI50 (IGROV-1): > 100 µM (inactive)
GI50 (K562): > 100 µM (inactive)
GI50 (KM-20L2): > 100 µM (inactive)
GI50 (KM12): > 100 µM (inactive)
GI50 (LOX IMVI): > 100 µM (inactive)
GI50 (LXFL 529): > 100 µM (inactive)
GI50 (M14): > 100 µM (inactive)
GI50 (M19-MEL): > 100 µM (inactive)
GI50 (MCF7): > 100 µM (inactive)
GI50 (MDA-MB-231): > 100 µM (inactive)
GI50 (MDA-MB-435): > 100 µM (inactive)
GI50 (MDA-N): > 100 µM (inactive)
GI50 (MOLT-4): > 100 µM (inactive)
GI50 (Malme-3M): > 100 µM (inactive)
GI50 (NCI-H226): > 100 µM (inactive)
GI50 (NCI-H23): > 100 µM (inactive)
GI50 (NCI-H460): > 100 µM (inactive)
GI50 (NCI-H522): > 100 µM (inactive)
GI50 (NCI/ADR-RES): > 100 µM (inactive)
GI50 (OVCAR-3): > 100 µM (inactive)
GI50 (OVCAR-4): > 100 µM (inactive)
GI50 (OVCAR-5): > 100 µM (inactive)
GI50 (OVCAR-8): > 100 µM (inactive)
GI50 (PC-3): > 100 µM (inactive)
GI50 (RPMI-8226): > 100 µM (inactive)
GI50 (RXF 393): > 100 µM (inactive)
GI50 (SF-268): > 100 µM (inactive)
GI50 (SF-295): > 100 µM (inactive)
GI50 (SF-539): > 100 µM (inactive)
GI50 (SK-MEL-28): > 100 µM (inactive)
GI50 (SK-MEL-2): > 100 µM (inactive)
GI50 (SK-MEL-5): > 100 µM (inactive)
GI50 (SK-OV-3): > 100 µM (inactive)
GI50 (SN12C): > 100 µM (inactive)
GI50 (SNB-19): > 100 µM (inactive)
GI50 (SNB-75): > 100 µM (inactive)
GI50 (SNB-78): > 100 µM (inactive)
GI50 (SR): > 100 µM (inactive)
GI50 (SW-620): > 100 µM (inactive)
GI50 (T47D): > 100 µM (inactive)
GI50 (TK-10): > 100 µM (inactive)
GI50 (U-251): > 100 µM (inactive)
GI50 (UACC-257): > 93.3 µM (inactive)
GI50 (UACC-62): > 100 µM (inactive)
GI50 (UO-31): > 100 µM (inactive)
GI50 (XF498): > 100 µM (inactive)

CC[C@H]1CN2CCc3cc(OC)c(OC)cc3[C@@H]2C[C@@H]1C[C@H]1NCCc2cc(OC)c(OC)cc21
GI50 (DLD-1): 0.0358 µM (active)
GI50 (DMS-273): 0.043 µM (active)
GI50 (HCT-116): 0.0149 µM (active)
GI50 (HL-60): 0.0148 µM (active)
GI50 (HOP-18): 0.0578 µM (active)
GI50 (K562): 0.0104 µM (active)
GI50 (KM-20L2): 0.0652 µM (active)
GI50 (LXFL 529): 0.0276 µM (active)
GI50 (MCF7): 0.00347 µM (active)
GI50 (MDA-MB-435): 0.0188 µM (active)
GI50 (MOLT-4): 0.0161 µM (active)
GI50 (NCI-H522): 0.0109 µM (active)
GI50 (RXF 631): 0.0311 µM (active)

Cc1ccc(-c2nc3c(C(=O)NCCN(C)C)cccc3[nH]2)cc1
GI50 (786-0): 24.4 µM (inactive)
GI50 (A498): 13 µM (inactive)
GI50 (A549): 11.2 µM (inactive)
GI50 (ACHN): 10.3 µM (inactive)
GI50 (CAKI-1): 23.5 µM (inactive)
GI50 (CCRF-CEM): 11.5 µM (inactive)
GI50 (COLO 205): 8 µM (inactive)
GI50 (DLD-1): 13.5 µM (inactive)
GI50 (DMS-114): 13.3 µM (inactive)
GI50 (DMS-273): 9.06 µM (inactive)
GI50 (EKVX): 24.4 µM (inactive)
GI50 (HCC 2998): 14.3 µM (inactive)
GI50 (HCT-116): 5.06 µM (inactive)
GI50 (HCT-15): 13.9 µM
GI50 (HL-60): 14.2 µM (inactive)
GI50 (HOP-18): 15.3 µM (inactive)
GI50 (HOP-62): 15.9 µM (inactive)
GI50 (HOP-92): 13.1 µM (inactive)
GI50 (HT-29): 15.5 µM (inactive)
GI50 (IGROV-1): 15.9 µM (inactive)
GI50 (K562): 13.7 µM (inactive)
GI50 (KM12): 20 µM (inactive)
GI50 (LOX IMVI): 11.1 µM (inactive)
GI50 (M14): 15.8 µM (inactive)
GI50 (M19-MEL): 16.2 µM (inactive)
GI50 (MOLT-4): 3.51 µM (inactive)
GI50 (NCI-H226): 11.9 µM (inactive)
GI50 (NCI-H23): 15 µM (inactive)
GI50 (NCI-H460): 4.89 µM (inactive)
GI50 (OVCAR-3): 21.5 µM (inactive)
GI50 (OVCAR-4): 22.9 µM (inactive)
GI50 (OVCAR-5): 20.9 µM (inactive)
GI50 (OVCAR-8): 15.2 µM (inactive)
GI50 (RXF 393): 10.7 µM (inactive)
GI50 (RXF 631): 4.89 µM (inactive)
GI50 (SF-268): 18.5 µM (inactive)
GI50 (SF-295): 16.7 µM (inactive)
GI50 (SF-539): 9.12 µM (inactive)
GI50 (SK-MEL-28): 18.4 µM (inactive)
GI50 (SK-MEL-2): 18.5 µM (inactive)
GI50 (SK-MEL-5): 13.7 µM (inactive)
GI50 (SK-OV-3): 14.5 µM (inactive)
GI50 (SN12C): 11.5 µM (inactive)
GI50 (SNB-19): 26.1 µM (inactive)
GI50 (SNB-75): 18 µM (inactive)
GI50 (SNB-78): 20.2 µM (inactive)
GI50 (SW-620): 6.27 µM (inactive)
GI50 (TK-10): 17.7 µM (inactive)
GI50 (U-251): 18.3 µM (inactive)
GI50 (UACC-257): 14 µM (inactive)
GI50 (UACC-62): 18.1 µM (inactive)
GI50 (UO-31): 9.79 µM (inactive)
